Assay results reported in ChEMBL document CHEMBL1123604 (J Med Chem, 1987).

Columns and labels:
Canis familiaris [1] = test: Increased myocardial contractility (dP/dt max) in anesthetized dog at 2 mg/kg; type: functional, Canis lupus familiaris, Myocardium
Canis familiaris [2] = test: Percent change of ventricular pressure in anesthetized dog at 1 mg/kg; type: functional, Canis lupus familiaris, Cardiac ventricle
Canis familiaris [3] = test: Increased myocardial contractility (dP/dt max) in conscious dog at 1 mg/kg peroral dose; type: functional, Canis lupus familiaris, Myocardium; conditions: route oral
Canis familiaris [4] = test: Percent change in blood pressure in anesthetized dog at 0.31 mg/kg; type: functional, Canis lupus familiaris
Canis familiaris [5] = test: Increased myocardial contractility (dP/dt max) in anesthetized dog at 8 mg/kg; type: functional, Canis lupus familiaris, Myocardium
Canis familiaris [6] = test: Percent change of heart rate in anesthetized dog at 1 mg/kg; type: functional, Canis lupus familiaris
Canis familiaris [7] = test: Increased myocardial contractility (dP/dt max) in conscious dog at 0.31 mg/kg peroral dose, range 10-20; type: functional, Canis lupus familiaris, Myocardium; conditions: route oral
Canis familiaris [8] = test: Percent change in ventricular pressure in anesthetized dog at 0.1 mg/kg; type: functional, Canis lupus familiaris, Cardiac ventricle
Canis familiaris [9] = test: Percent change in blood pressure in anesthetized dog at 0.01 mg/kg; type: functional, Canis lupus familiaris
Canis familiaris [10] = test: Percent change in blood pressure in anesthetized dog at 1 mg/kg; type: functional, Canis lupus familiaris
Canis familiaris [11] = test: Percent change of heart rate in anesthetized dog at 0.1 mg/kg; type: functional, Canis lupus familiaris
Canis familiaris [12] = test: Percent change in heart rate in anesthetized dog at 0.031 mg/kg; type: functional, Canis lupus familiaris
Canis familiaris [13] = test: Percent change of heart rate in anesthetized dog at 0.31 mg/kg; type: functional, Canis lupus familiaris
Canis familiaris [14] = test: Percent change in blood pressure in anesthetized dog at 0.031 mg/kg; type: functional, Canis lupus familiaris
Canis familiaris [15] = test: Percent change of ventricular pressure in anesthetized dog at 0.31 mg/kg; type: functional, Canis lupus familiaris, Cardiac ventricle
Canis familiaris [16] = test: Percent change in ventricular pressure in anesthetized dog at 0.031 mg/kg; type: functional, Canis lupus familiaris, Cardiac ventricle
Canis familiaris [17] = test: Percent change of ventricular pressure in anesthetized dog at 0.01 mg/kg; type: functional, Canis lupus familiaris, Cardiac ventricle
Canis familiaris [18] = test: Percent change in blood pressure in anesthetized dog at 0.1 mg/kg; type: functional, Canis lupus familiaris
Canis familiaris [19] = test: Percent change of heart rate in anesthetized dog at 0.01 mg/kg; type: functional, Canis lupus familiaris
Canis familiaris [20] = test: Increased myocardial contractility (dP/dt max) in anesthetized dog
[21] = Inhibition of Guinea Pig cAMP specific phosphodiesterase (PDE III)
Canis familiaris [22] = test: Change in heart rate(HR) in anesthetized dog; type: functional, Canis lupus familiaris
Canis familiaris [23] = test: Change in mean arterial blood pressure(MAP) in anesthetized dog; type: functional, Canis lupus familiaris, Artery
Canis familiaris [24] = test: Myocardial contractility in anesthetized dog by intravenous dose; type: functional; conditions: Canis lupus familiaris, Myocardium
Canis familiaris [25] = test: Percent change of ventricular pressure in anesthetized dog at 0.031 mg/kg; type: functional, Canis lupus familiaris, Cardiac ventricle
Canis familiaris [26] = test: Increased contractility (dP/dt max) in Conscious dog at peroral dose of 0.31 mg/kg; type: functional, Canis lupus familiaris; conditions: route oral
Canis familiaris [27] = test: Percent change of ventricular pressure in anesthetized dog at 0.1 mg/kg; type: functional, Canis lupus familiaris, Cardiac ventricle
Canis familiaris [28] = test: Increased myocardial contractility (dP/dt max) in anesthetized dog at 6 mg/kg; type: functional, Canis lupus familiaris, Myocardium
Canis familiaris [29] = test: Percent change of heart rate in anesthetized dog at 0.031 mg/kg; type: functional, Canis lupus familiaris
[30] = Inhibition of Guinea Pig cAMP specific phosphodiesterase (PDE III); remark: listed apart in the source

**Q.** For `CC1CC(c2ccc(-n3ccnc3)cc2)=NNC1=O` (stereo not drawn), which Dose (Canis familiaris [1]) is on record?
**A.** 0.5 mg/kg

**Q.** With `O=C1CCC(c2ccc(-n3ccnc3)cc2)=NN1` [IMAZODAN] as the compound, how does the Change (Canis familiaris [2]) read?
**A.** 146.7%

**Q.** And the Increase contractility (Canis familiaris [3])?
**A.** 40%

**Q.** What about the Change (Canis familiaris [4]) of the same compound?
**A.** -13.2%

**Q.** And the Dose (Canis familiaris [5])?
**A.** 0.045 mg/kg

**Q.** What about the Change (Canis familiaris [6]) of the same compound?
**A.** 33.8%

**Q.** And the Increase contractility (Canis familiaris [7])?
**A.** 10%

**Q.** And the Change (Canis familiaris [8])?
**A.** 74.2%

**Q.** And the Change (Canis familiaris [9])?
**A.** -0.7%

**Q.** And the Change (Canis familiaris [10])?
**A.** -22.4%

**Q.** And the Change (Canis familiaris [11])?
**A.** 6.2%

**Q.** What about the Change (Canis familiaris [12]) of the same compound?
**A.** 5.6%

**Q.** What about the Change (Canis familiaris [13]) of the same compound?
**A.** 19.2%

**Q.** And the Change (Canis familiaris [14])?
**A.** -4.1%

**Q.** What about the Change (Canis familiaris [15]) of the same compound?
**A.** 127.3%

**Q.** What about the Change (Canis familiaris [16]) of the same compound?
**A.** 37.2%

**Q.** And the Change (Canis familiaris [17])?
**A.** 10.2%

**Q.** What about the Change (Canis familiaris [18]) of the same compound?
**A.** -5.3%

**Q.** And the Change (Canis familiaris [19])?
**A.** 0%

**Q.** What about the Dose (Canis familiaris [20]) of the same compound?
**A.** 0.045 mg/kg

**Q.** Which IC50 [21] does the source give for `CCC1C(=O)NN=C1c1ccc(-n2ccnc2)cc1` (stereo not drawn) here?
**A.** 270 µM

**Q.** And the Change (Canis familiaris [22])?
**A.** 0%

**Q.** What about the Change (Canis familiaris [23]) of the same compound?
**A.** 0%

**Q.** What about the ED50 (Canis familiaris [24]) of the same compound?
**A.** > 1 mg/kg

**Q.** For `CCC1(C)C(=O)NN=C1c1ccc(-n2ccnc2)cc1` (stereo not drawn), which IC50 [21] is on record?
**A.** 52 µM

**Q.** What about the Change (Canis familiaris [22]) of the same compound?
**A.** 17%

**Q.** And the Change (Canis familiaris [23])?
**A.** 6%

**Q.** What about the ED50 (Canis familiaris [24]) of the same compound?
**A.** 0.37 mg/kg

**Q.** Which IC50 [21] does the source give for `CC1(C)C(=O)NN=C1c1ccc(-n2cnc3c2CCCC3)cc1` here?
**A.** 3.2 µM

**Q.** What about the Change (Canis familiaris [22]) of the same compound?
**A.** 10%

**Q.** What about the Change (Canis familiaris [23]) of the same compound?
**A.** -10%

**Q.** What about the ED50 (Canis familiaris [24]) of the same compound?
**A.** 0.2 mg/kg

**Q.** Which results are given for `O=C1CC(c2ccc(-n3ccnc3)cc2)=NN1`?
**A.** IC50 [21]: 590 µM; Change (Canis familiaris [22]): 0%; Change (Canis familiaris [23]): 0%; ED50 (Canis familiaris [24]): > 1 mg/kg

**Q.** Which Change (Canis familiaris [2]) does the source give for `CC1(C)C(=O)NN=C1c1ccc(-n2ccnc2)cc1` here?
**A.** 100%

**Q.** What about the Change (Canis familiaris [4]) of the same compound?
**A.** -20%

**Q.** What about the Change (Canis familiaris [6]) of the same compound?
**A.** 14%

**Q.** And the Change (Canis familiaris [9])?
**A.** -0.5%

**Q.** And the IC50 [21]?
**A.** 22 µM

**Q.** And the Change (Canis familiaris [10])?
**A.** -34%

**Q.** What about the Change (Canis familiaris [22]) of the same compound?
**A.** 4.9%

**Q.** And the Change (Canis familiaris [25])?
**A.** 10%

**Q.** And the Change (Canis familiaris [11])?
**A.** 0.8%

**Q.** What about the Change (Canis familiaris [23]) of the same compound?
**A.** -14%

**Q.** And the Change (Canis familiaris [13])?
**A.** 9%

**Q.** And the ED50 (Canis familiaris [24])?
**A.** 0.18 mg/kg

**Q.** And the Change (Canis familiaris [14])?
**A.** -4%

**Q.** What about the Change (Canis familiaris [15]) of the same compound?
**A.** 78%

**Q.** And the Change (Canis familiaris [26])?
**A.** 24%

**Q.** And the Change (Canis familiaris [17])?
**A.** 6%

**Q.** What about the Change (Canis familiaris [27]) of the same compound?
**A.** 39%

**Q.** What about the Dose (Canis familiaris [28]) of the same compound?
**A.** 0.18 mg/kg

**Q.** And the Change (Canis familiaris [18])?
**A.** -11%

**Q.** What about the Change (Canis familiaris [29]) of the same compound?
**A.** 0.2%

**Q.** And the Change (Canis familiaris [19])?
**A.** 0%

**Q.** Which IC50 [21] does the source give for `CCC1(CC)C(=O)NN=C1c1ccc(-n2ccnc2)cc1` here?
**A.** 120 µM

**Q.** What about the Change (Canis familiaris [22]) of the same compound?
**A.** 0%

**Q.** And the Change (Canis familiaris [23])?
**A.** 0%

**Q.** And the ED50 (Canis familiaris [24])?
**A.** > 1 mg/kg

**Q.** For `O=C1NN=C(c2ccc(-n3ccnc3)cc2)C12CCCC2`, which IC50 [21] is on record?
**A.** 54 µM

**Q.** And the Change (Canis familiaris [22])?
**A.** 3.5%

**Q.** And the Change (Canis familiaris [23])?
**A.** -0.25%

**Q.** And the ED50 (Canis familiaris [24])?
**A.** 1 mg/kg

**Q.** Which Dose (Canis familiaris [1]) does the source give for `CC1(C)CC(=O)NN=C1c1ccc(-n2ccnc2)cc1` here?
**A.** 0.2 mg/kg

**Q.** For `CSc1ccc(C2=NNC(=O)C2(C)C)cc1`, which Change (Canis familiaris [22]) is on record?
**A.** 5%

**Q.** And the Change (Canis familiaris [23])?
**A.** -1%

**Q.** And the ED50 (Canis familiaris [24])?
**A.** 0.35 mg/kg

**Q.** With `CC1(C)C(=O)NN=C1c1ccncc1` as the compound, how does the Change (Canis familiaris [22]) read?
**A.** 11%

**Q.** And the Change (Canis familiaris [23])?
**A.** 1%

**Q.** And the ED50 (Canis familiaris [24])?
**A.** 0.3 mg/kg

**Q.** For `CC1(C)CC(c2ccc(-n3ccnc3)cc2)=NNC1=O`, which Dose (Canis familiaris [1]) is on record?
**A.** 0.05 mg/kg

**Q.** What does the source list for `CC1C(=O)NN=C1c1ccc(-n2ccnc2)cc1` (stereo not drawn)?
**A.** Change (Canis familiaris [22]): 0%; Change (Canis familiaris [23]): 0%; ED50 (Canis familiaris [24]): > 1 mg/kg; IC50 [30]: 140 µM

**Q.** Which Dose (Canis familiaris [28]) does the source give for `CC1CC(O)=NN=C1c1ccc(-n2ccnc2)cc1` (stereo not drawn) [CI-930] here?
**A.** 0.013 mg/kg
